Marks after values point to notes of the source that are not given here.
Tested on: diabetic wound
Experiment: Diabetic wound healing test in STZ-induced hyperglycemic rats
Format: in vivo
Set-up: CT50: wound half-closure time: unit not given beside the values
Conditions: 0.5% ointment applied to wounds, mean±SEM, n = 6
Experimental: After rats' body weight reach 300 g, the induction of hyperglycemia was carried out with streptozotocin (STZ) (65 mg/kg, ip administration). […] Hyperglycemic animals with a body weight less than 300 g were excluded, and random grouping was performed. Animals were anesthetized with pentobarbital and then their backs were shaved and disinfected. Three pieces of animal skin (full thickness) were harvested from the back of the animals at points 4, 6 and 8 cm from the midpoint of the two scapula with an 1- cm-diameter drilling round knife.
Wounds of each animal were applied with testing agents. New skins were harvested for examination after the end of experiment.
Analyzing the areas of the three wounds on the back of each rat by image pro with the area on day zero as the original wound area. The original wound area is subtracted by the wound area at each time point and then divided by the original wound area to serve as the percentage of wound healing. The average value of the three percentages of wound healing of each rat is considered as the respective would healing extent of each rat. The number of rats was 6 for each group of each test. Data is expressed as mean±SEM. P value is calculated for the test results by t-test against control group, where P<0.05 indicates significant differences, denoted *.
A 0.5% cirsimaritin composition was prepared in an ointment form, and was applied to the rats as treated above. The comparison between the percentages of wound healing at 9, 11, 13, and 15 days after administration, and the untreated control group is shown below. There were significant differences for each group.

For `COc1cc2oc(-c3ccc(O)cc3)cc(=O)c2c(O)c1OC` [cirsimaritin], the “CT50: wound half-closure time” value was 10.7 ± 0.4*, the “percentage of wound healing” value (9 days after administration) was 37.2 ± 3.9* % and the “percentage of wound healing” value (11 days after administration) was 51.5 ± 3.1* %. For the same compound, the “percentage of wound healing” value (13 days after administration) was 70.6 ± 3.5* % and the “percentage of wound healing” value (15 days after administration) was 83.3 ± 3.2* %.

— US10376488B2, “Use of flavonoids in manufacturing compositions for wound healing” (ONENESS BIOTECH CO., Ltd, priority 2014, dated 2019)
